The nature of data set [1]: Intrinsic clearance in human liver microsomes. The format is ADME, Microsome.
Data set [2] in a line: Lipophilicity, log D of the compound at pH 7.4 by chromatographic method. The note with it: buffer. The format is physicochemical.
The nature of data set [3]: Drug level in naive rat brain at 5 mg/kg, iv administered as bolus dose followed by 5 ml/kg/hr iv infusion for 4 hrs. In kind it is ADME, organism-based. The note with it: read-out: Drug uptake.
A short description of data set [4]: Drug level in naive rat blood at 5 mg/kg, iv administered as bolus dose followed by 5 ml/kg/hr iv infusion for 4 hrs. The format is ADME, organism-based. The following applies: read-out: Drug uptake.
Data set [5] can be described thus: Drug level in naive rat spleen at 5 mg/kg, iv administered as bolus dose followed by 5 ml/kg/hr iv infusion for 4 hrs. The format is ADME, organism-based. The following applies: read-out: Drug uptake.
Data set [6] can be described thus: Brain to blood partition coefficient, Kp of the compound in naive rat at 5 mg/kg, iv administered as bolus dose followed by 5 ml/kg/hr iv infusion for 4 hrs. In kind it is ADME, organism-based.
A short description of data set [7]: Drug level in naive rat kidney at 5 mg/kg, iv administered as bolus dose followed by 5 ml/kg/hr iv infusion for 4 hrs. In kind it is ADME, organism-based. The following applies: read-out: Drug uptake.
Data set [8] is described as follows: Unbound brain-to-plasma concentration ratio in naive rat at 5 mg/kg, iv administered as bolus dose followed by 5 ml/kg/hr iv infusion for 4 hrs. In kind it is ADME, organism-based. The following applies: read-out: K(p,uu,brain).

For orientation: chromatographic logD means a lipophilicity value derived from retention on a column. The low end stands for a more hydrophilic compound, the high end for a more lipophilic compound. In turn, `O=C(Nc1ccnnc1)c1cc(N2CC(F)(F)C2)ccc1OCc1ccccc1` yielded a CLH in data set [1] of 9.5 mL/min/g. The chromatographic logD in data set [2] is 5.1. In data set [2], `CN1CC2(C1)CN(c1ccc(OCc3ccccc3)c(C(=O)Nc3ccnnc3)c1)C2` returned a chromatographic logD of 2.

As to `O=C(Nc1ccnnc1)c1cc(N2CCNCC2)ccc1OCc1ccccc1`, the CLH in data set [1] was found to be 0.4 mL/min/g. This molecule also showed a chromatographic logD in data set [2] of 1.9. On to `O=C(Nc1ccnnc1)c1cc(N2CC(F)C2)ccc1OCc1ccccc1`, for which the CLH in data set [1] came to 11.8 mL/min/g. Moreover, the chromatographic logD in data set [2] came out at 4.4. Turning to `O=C(Nc1ccnnc1)c1cc(N2CCC(O)CC2)ccc1OCc1ccccc1`, the CLH in data set [1] amounted to 0.6 mL/min/g. Also, the chromatographic logD in data set [2] was 3.2.

For the molecule `COCCN1CCC(c2ccc(OCc3ccccc3)c(C(=O)Nc3ccnnc3)c2)CC1`, the CLH in data set [1] was less than 0.78 mL/min/g. Besides, the chromatographic logD in data set [2] was determined as 2.9. In the case of `N#Cc1cccc(NC(=O)c2cc(C(F)(F)F)ccc2OCc2ccc(F)cc2)c1`, the chromatographic logD in data set [2] turned out to be 7.5. Consider `O=C(Nc1ccnnc1)c1cc(N2CCCC2)ccc1OCc1ccccc1`, for which the CLH in data set [1] came out at 9.8 mL/min/g. The same molecule had a chromatographic logD in data set [2] of 6.1.

Molecule `O=C(Nc1cccc(Cl)c1)c1cc(C(F)(F)F)ccc1OCc1ccc(F)cc1` displayed a chromatographic logD in data set [2] of 8.7. For orientation: Kp means tissue or fluid exposure divided by exposure in the circulation. For the molecule `O=C(Nc1ccnnc1)c1cc(N2CCOCC2)ccc1OCc1ccccc1`, the concentration at 4 h in data set [3] is 1630 ng/g; in data set [4], 1130 ng/mL; in data set [5], 1680 ng/g; in data set [7], 3970 ng/g. Also, the Kp at 4 h in data set [6] turned out to be 1.44. This molecule also gave a CLH in data set [1] of 2.1 mL/min/g. Also, the chromatographic logD in data set [2] stood at 4.1. For the same molecule, the Kp uu at 4 h in data set [8] is 0.51.

The molecule `CN1CCC(c2ccc(OCc3ccccc3)c(C(=O)Nc3ccnnc3)c2)CC1` gave a chromatographic logD in data set [2] of 2.3. Still for that read-out and setting: the result for `C[C@@H]1COCCN1c1ccc(OCc2ccccc2)c(C(=O)Nc2ccnnc2)c1` reads 4.5; that for `O=C(Nc1ccnnc1)c1cc(N2CCCCC2)ccc1OCc1ccccc1`, 6.3. Molecule `C[C@@H]1CN(c2ccc(OCc3ccccc3)c(C(=O)Nc3ccnnc3)c2)C[C@H](C)O1` displayed a CLH in data set [1] of 2.2 mL/min/g. The same molecule had a chromatographic logD in data set [2] of 5.4. In the case of `O=C(Nc1cccnc1)c1cc(C(F)(F)F)ccc1OCc1ccc(F)cc1`, the chromatographic logD in data set [2] was 6.3. In data set [2], `O=C(Nc1ccnnc1)c1cc(C(F)(F)F)ccc1OCc1ccccc1` yielded a chromatographic logD of 5.4.

`O=C(Nc1ccnnc1)c1cc(N2CCC(F)CC2)ccc1OCc1ccccc1` had a CLH in data set [1] of 5.5 mL/min/g. The chromatographic logD in data set [2] turned out to be 5.1.

The molecule `O=C(Nc1cccc(Cl)c1)c1cc(C(F)(F)F)ccc1OCc1ccccc1` yielded a chromatographic logD in data set [2] of 8.8. The molecule `O=C(Nc1cccc(F)c1)c1cc(C(F)(F)F)ccc1OCc1ccc(F)cc1` showed a chromatographic logD in data set [2] of 8.2. On the same count and under the same terms, to `CN1CC2(CCN(c3ccc(OCc4ccccc4)c(C(=O)Nc4ccnnc4)c3)CC2)C1` belongs 2.2. In data set [1], `N#CC1CCN(c2ccc(OCc3ccccc3)c(C(=O)Nc3ccnnc3)c2)CC1` registered a CLH of 5.5 mL/min/g. In data set [2], this molecule displayed a chromatographic logD of 4.5. `O=C(Nc1cccnc1)c1cc(C(F)(F)F)ccc1OCc1ccccc1` showed a chromatographic logD in data set [2] of 6.3. In turn, `O=C(Nc1ccnnc1)c1cc(N2CCC(CO)CC2)ccc1OCc1ccccc1` displayed a CLH in data set [1] of 1 mL/min/g. The chromatographic logD in data set [2] was 3.5.

In the case of `CN1CCN(c2ccc(OCc3ccccc3)c(C(=O)Nc3ccnnc3)c2)CC1`, the CLH in data set [1] is 1.6 mL/min/g. The molecule further had a chromatographic logD in data set [2] of 3. For the molecule `COCCN1CCN(c2ccc(OCc3ccccc3)c(C(=O)Nc3ccnnc3)c2)CC1`, in data set [1], the CLH was 1.3 mL/min/g. Besides, the chromatographic logD in data set [2] worked out at 3.8. On the same counts, the results for `O=C(Nc1ccnnc1)c1cc(N2C[C@H]3COC[C@H]3C2)ccc1OCc1ccccc1` are 4.3 mL/min/g and 4.5.

Values taken from ChEMBL document CHEMBL4371037, “5-Substituted-N-pyridazinylbenzamides as potent and selective LRRK2 inhibitors: Improved brain unbound fraction enables efficacy” (Bioorg Med Chem Lett, 2019).
